Publication PMC10017155 (Aging and Disease, 2023)

Tests used:
H6R-Aβ16 = conditions: ref [9]; cited from earlier work
Description: The dimeric form has a well-resolved characteristic signal of the V12 methyl group at 0.2 ppm, which allows for a quantitative assessment of the dimeric state. […] Thus, the ...

isoD7-Aβ16 = assay: NMR titration, isoD7-Aβ16 with HAEE and Zn2+; type: binding; conditions: addition of Zn2+ without HAEE; disappearance of NMR signal (Supplementary Fig. 3); also ref [9]
Description: Peptides Aβ16, H6R-Aβ16 and isoD7-Aβ16 at the concentration of 0.2 - 8mM were dissolved in 10-20 mM bis-Tris-d19 (2,2-Bis(hydroxymethyl)-2,2′,2"-nitrilotrie-thanol-d19 with 98% ^2D enrichment) buffer solution (pH 6.8). Sodium salt of 3-(trimethylsilyl) propionic-2,2,3,3-d4 acid (DSS) at a concentration of 10-20 μM was added as the standard. NMR spectra were measured at 278 K in 90% H2O/10% D2O with Bruker AVANCE 600 MHz spectrometer equipped with triple resonance (^1H, ^13C and ^15N) pulsed field z gradient probe. 1D NMR spectra were processed and analyzed using the Mnova software (Mestrelab Research, Spain). In order to monitor peptide-peptide interactions NMR titration experiments were carried out. […] 1D spectra were recorded for each titration point.

[1] = compared with normal Aβ; ref [9]; cited from earlier work
Description: We hypothesized that the contribution of isoD7-Aβ to the development of AD is based on the formation of zinc-bound complexes that promote pathological aggregation of Aβ (Fig. 1A).

transgenic mice = conditions: in contrast to normal Aβ; ref [23], [24]; cited from earlier work
Description: The development of AD comprises a cascade of pathogenic processes in brain tissue. Some of the major elements of this cascade are the aggregation of beta-amyloid (Aβ) with the formation of neurotoxic oligomers, hyperphosphorylation of tau, and neuroinflammation. […] In the sporadic form of AD, accounting for 95% of disease cases, the molecular triggers for the pathological cascade remain unknown. […] We hypothesized that the contribution of isoD7-Aβ to the development of AD is based on the formation of zinc-bound complexes that promote pathological aggregation of Aβ (Fig. 1A). […] Interaction of HAEE with beta-amyloid. (A) A model for the contribution of isoD7-Aβ to AD pathology, and the possible ways of preventing its deleterious effects. Aβ spontaneously converts into isoD7-Aβ, which is accumulated over age, likely due to reduced Aβ clearance. Isomerized Aβ promotes AD pathology, potentially via formation of Zn-bound complexes serving as the seeds for a generation of neurotoxic oligomers. Treatment with anti-isoAβ antibodies is a promising therapeutic strategy already showing effectiveness in AD model mice ^9.

Substance | State of H6R-Aβ16 in the presence of Zn2+ (H6R-Aβ16) | Effect of Zn2+ on isoD7-Aβ16 (oligomerization; NMR signal) (isoD7-Aβ16) | Zinc-dependent aggregation [1] | Amyloidosis in transgenic mice (transgenic mice)
Ac-DAEFRRDSGYEVHHQK-NH2 [H6R-Aβ16, Aβ1-16 variant with the English (H6R) mutation] | mixture of monomeric and dimeric forms | – | – | –
Ac-DAEFRH[isoD]SGYEVHHQK-NH2 [isoD7-Aβ16, reference compound] | – | almost complete oligomerization and precipitation | increased capacity | stimulate amyloidosis
